The values below come from US9103820B2 (priority 2004, dated 2015).

One test concerns the target STX. The conditions noted are these: read-out: affinity (Kd) for STX; cited from earlier work.
The target in test [1] is His-tagged Stx 2B-subunit (Escherichia phage 933W, UniProt P09386). In words: biochemical. It counts as binding, Escherichia coli O157:H7.

For orientation: Kd means a measure of binding affinity in units of concentration.

Positions of bridges follow the written chain, without caps; N, C: chain ends. Non-standard residues stand in square brackets, D forms with d. Chains are numbered I, II in the order given. No end group written: not given here. ξ: configuration not given here. ξK = NCCCCC(N)C(=O)O; Ahx = NCCCCCC(=O)O

Sequence of His-tagged Stx 2B-subunit (P09386 20-89 limits assumed): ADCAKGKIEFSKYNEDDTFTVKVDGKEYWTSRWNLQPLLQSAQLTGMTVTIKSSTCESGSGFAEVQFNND

In the case of “Galα(1-4)-Galβ(1-4)-G1cβ1- [globo3 sugar]”, the Kd at STX was 1000 µM.
The substance “I: MAFRRNRRNA[Ahx][ξK][ξK] / II: MAFRRNRRNA[Ahx][ξK] / III: MAFRRNRRNA[Ahx] / IV: MAFRRNRRNA[Ahx] (amide I:12-IV:C, I:13-II:C, II:12-III:C) [FRRNRRN]” displayed a Kd in test [1] of 1.7 µM.
The same measure, in the same setting: the figure for “I: MAKRRNPRRA[Ahx][ξK][ξK] / II: MAKRRNPRRA[Ahx][ξK] / III: MAKRRNPRRA[Ahx] / IV: MAKRRNPRRA[Ahx] (amide I:12-IV:C, I:13-II:C, II:12-III:C) [KRRNPRR]” is 2.1 µM; for “I: MAPPPRRRRA[Ahx][ξK][ξK] / II: MAPPPRRRRA[Ahx][ξK] / III: MAPPPRRRRA[Ahx] / IV: MAPPPRRRRA[Ahx] (amide I:12-IV:C, I:13-II:C, II:12-III:C) [PPPRRRR]” it is 3.2 µM; for “I: MAPPRRNRRA[Ahx][ξK][ξK] / II: MAPPRRNRRA[Ahx][ξK] / III: MAPPRRNRRA[Ahx] / IV: MAPPRRNRRA[Ahx] (amide I:12-IV:C, I:13-II:C, II:12-III:C) [PPRRNRR]” it is 2.7 µM.
